# Several values for one entry are separate records, joined by “and”; a condition that tells them apart may be missing. Equal entries are not always repeated. Toxic doses and inconclusive results are not listed.
# Test system: P388 leukemia ip, CD2F1 mice, survival T/C
# Experiment: NCI In Vivo Anticancer Drug Screen. Data for tumor model P388 Leukemia (intraperitoneal) in CD2F1 (CDF1) mice
# Settings: endpoint: median survival time, higher = longer survival
# Procedure, shortened: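 Mice carrying the transplanted tumor received test compound or vehicle. Survival was recorded in each group, and the value is the treated-group measurement divided by that of the vehicle-treated control group.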
# [1] = dose: 60.0 mg/kg/injection, schedule: Q01DX005 (ip), vehicle: saline with Tween-80
# [2] = dose: 120.0 mg/kg/injection, schedule: Q01DX005 (ip), vehicle: saline with Tween-80
# [3] = dose: 240.0 mg/kg/injection, schedule: Q01DX005 (ip), vehicle: saline with Tween-80
structure (smiles),measurement,setting,value
CCOC(=O)CC(=O)C(F)(F)F.[Cu+2],T/C,"dose: 2.5 mg/kg/injection, schedule: Q01DX009 (ip), vehicle: saline with Tween-80",100 % of control
same,T/C,"dose: 5.0 mg/kg/injection, schedule: Q01DX009 (ip), vehicle: saline with Tween-80",115 % of control
same,T/C,"dose: 10.0 mg/kg/injection, schedule: Q01DX009 (ip), vehicle: saline with Tween-80",110 % of control
Cc1c2ccn(Cc3ccccc3)cc2c(C)c2c1nc1ccccc12,T/C,"dose: 19.25 mg/kg/injection, schedule: Q04DX002 (ip), vehicle: saline with Tween-80",121 % of control
same,T/C,"dose: 38.5 mg/kg/injection, schedule: Q04DX002 (ip), vehicle: saline with Tween-80",113 % of control
Cc1cc(N=[N+]=[N-])c2cc3c(cc2n1)OCO3,T/C,[1],103 % of control
same,T/C,[2],95 % of control
same,T/C,[3],94 % of control
Cc1ccccc1N1C(=O)[N+](C)(C)N=C1[O-],T/C,"dose: 100.0 mg/kg/injection, schedule: Q04DX003 (ip), vehicle: saline",109 % of control and 113 % of control
same,T/C,"dose: 200.0 mg/kg/injection, schedule: Q04DX003 (ip), vehicle: saline",99 % of control and 113 % of control
same,T/C,"dose: 400.0 mg/kg/injection, schedule: Q04DX003 (ip), vehicle: saline",91 % of control
CC1(C)OC2OC(C3COC(=O)O3)C(O)C2O1 (configuration not stated),T/C,"dose: 50.0 mg/kg/injection, schedule: Q01DX005 (ip), vehicle: Klucel (hydroxypropylcellulose) (HPC)",95 % of control
same,T/C,"dose: 100.0 mg/kg/injection, schedule: Q01DX005 (ip), vehicle: Klucel (hydroxypropylcellulose) (HPC)",98 % of control
same,T/C,"dose: 200.0 mg/kg/injection, schedule: Q01DX005 (ip), vehicle: Klucel (hydroxypropylcellulose) (HPC)",101 % of control
COC(C(=O)C(O)C(C)O)C1CC2C=C3C=C(OC4CC(OC5CC(O)C(OC)C(C)O5)C(OC(C)=O)C(C)O4)C(C)C(=O)C3=C(O)C2=C(O)C1OC1CC(OC2CC(OC3CC(C)(O)C(O)C(C)O3)C(O)C(C)O2)C(O)C(C)O1 (configuration not stated),T/C,"dose: 0.25 mg/kg/injection, schedule: Q01DX001 (ip), vehicle: water",110 % of control
same,T/C,"dose: 0.5 mg/kg/injection, schedule: Q01DX001 (ip), vehicle: water",112 % of control
same,T/C,"dose: 1.0 mg/kg/injection, schedule: Q01DX001 (ip), vehicle: water",118 % of control
same,T/C,"dose: 2.0 mg/kg/injection, schedule: Q01DX001 (ip), vehicle: water",124 % of control
same,T/C,"dose: 8.0 mg/kg/injection, schedule: Q01DX001 (ip), vehicle: water",154 % of control
COC(=O)C(O)C1OC(COCc2ccccc2)C(OCc2ccccc2)C1OCc1ccccc1 (configuration not stated),T/C,"dose: 12.5 mg/kg/injection, schedule: Q01DX009 (ip), vehicle: distilled water + alcohol",100 % of control
same,T/C,"dose: 25.0 mg/kg/injection, schedule: Q01DX009 (ip), vehicle: distilled water + alcohol",100 % of control
same,T/C,"dose: 50.0 mg/kg/injection, schedule: Q01DX009 (ip), vehicle: distilled water + alcohol",103 % of control
same,T/C,"dose: 100.0 mg/kg/injection, schedule: Q01DX009 (ip), vehicle: distilled water + alcohol",100 % of control
same,T/C,"dose: 200.0 mg/kg/injection, schedule: Q01DX009 (ip), vehicle: distilled water + alcohol",112 % of control
CSC1=NC=C(C#N)C2=NC(c3cccs3)NN12 (configuration not stated),T/C,[1],118 % of control
same,T/C,[2],99 % of control
same,T/C,[3],96 % of control

# From PubChem BioAssay AID330 (DTP/NCI, 2004)
